In patent US20240368163A1, “COMPOUNDS AND METHODS FOR MODULATING SPLICING” (REMIX THERAPEUTICS INC., priority 2021, published 2024):
pIC50: −log10 of the molar value. Where two headings read alike, the source gives them in different places.

Assays:
Assay type in all cases: cell-based, human
HTT [1] = experiment: Splicing RT-qPCR assay, HTT mRNA canonical junction (CJ) and alternative junction (AJ); conditions: Homo sapiens; for AC50: increase in AJ mRNA
Procedure, shortened: (§1)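 Splicing switch read by one-step RT-qPCR of canonical and alternative exon junctions, housekeeper-normalized (GAPDH/GUSB/PPIA), 2^(−ΔΔCt) vs DMSO as percent response. Cells (A673 or K562) dosed 24 h, 11 points 3-fold from 10 uM, DMSO ≤0.25%.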

MYB [2] = experiment: Splicing RT-qPCR assay, MYB mRNA canonical junction (CJ) and alternative junction (AJ); conditions: Homo sapiens; for AC50: increase in AJ mRNA
Procedure, shortened: as §1

MYB [3] = experiment: HiBiT protein abundance assay, MYB; conditions: Homo sapiens, K562, 24 h, modified K562 cells
Procedure, shortened: (§2)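 K562 cells with endogenous HiBiT-tagged target were treated 24 h at 37 °C with compound (10-point 3-fold dilution, top 10 μM final, DMSO ≤0.25%). Lytic LgBiT luminescence was normalized to unmodified K562 (baseline) and DMSO-treated tagged cells; IC50 interpolated at 50% from four-parameter logistic fit.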

SMN2 = experiment: Splicing RT-qPCR panel, SMN2 canonical junction (CJ) mRNA; conditions: Homo sapiens, read-out: SMN2 IC50 (decrease in CJ mRNA levels)
Procedure, shortened: as §1

Target C [4] = experiment: HiBiT protein abundance assay, Target C; conditions: Homo sapiens, K562, 24 h, modified K562 cells
Procedure, shortened: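 HiBiT knock-in K562-derived cells, 10000 cells/well, were treated 24 h at 37 °C with a 10-point 3-fold dilution series (top 10 μM final, DMSO ≤0.25%). Lytic HiBiT luminescence was normalized to unmodified K562 and DMSO controls; IC50 was interpolated at 50% from a four-parameter logistic fit.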

HTT [5] = experiment: HiBiT protein abundance assay, HTT; conditions: Homo sapiens, K562, 24 h, modified K562 cells
Procedure, shortened: as §2

Target C [6] = experiment: Splicing RT-qPCR panel, Target C canonical junction (CJ) mRNA; conditions: Homo sapiens, read-out: Target C IC50 (decrease in CJ mRNA levels)
Procedure, shortened: as §1

[7] = 24 h, decrease in CJ mRNA, A673 or K562 cells, 24 hours treatment, RT-qPCR, read-out: HTT CJ IC50
[8] = 24 h, A673 or K562 cells, 24 hours treatment, RT-qPCR
[9] = RT-qPCR panel, canonical junction mRNA, compound concentration having 50% response in CJ decrease, read-out: HTT IC50 (decrease in CJ mRNA levels)
[10] = 24 h, decrease in CJ mRNA, A673 or K562 cells, 24 hours treatment, RT-qPCR, read-out: MYB CJ IC50
[11] = RT-qPCR panel, canonical junction mRNA, compound concentration having 50% response in CJ decrease, read-out: MYB IC50 (decrease in CJ mRNA levels)
[12] = RT-qPCR panel, canonical junction mRNA, compound concentration having 50% response in CJ decrease
[13] = gene panel, CJ qPCR, protocol of Example 142

Row | SMILES | pIC50 (HTT [1]; [7]) | pIC50 (HTT [1]; [9]) | pIC50 (MYB [2]; [10]) | pIC50 (MYB [2]; [11]) | pIC50 (MYB [3]; Table 13A) | pIC50 (SMN2; [12]) | pIC50 (Target C [4]; Table 13A) | pIC50 (HTT [5]; Table 13A) | pIC50 (Target C [6]; [12]) | AC50 (HTT [1]; [8]) | AC50 (MYB [2]; [8]) | pIC50 (HTT [1]; gene panel, CJ qPCR, protocol of Example 142, read-out: HTT IC50 (decrease in CJ mRNA levels)) | pIC50 (MYB [2]; gene panel, CJ qPCR, protocol of Example 142, read-out: MYB IC50 (decrease in CJ mRNA levels)) | pIC50 (MYB [3]; Table 13B) | pIC50 (SMN2; [13]) | pIC50 (Target C [4]; Table 13B) | pIC50 (HTT [5]; Table 13B) | pIC50 (Target C [6]; [13])
1 | c1n[nH]cc1-c1ccc(-c2ccc(N3CC4(CCNCC4)C3)nn2)c2[nH]ncc12 [Compound 229] | 5.00 to 6.00 | 5.00 to 6.00 | 5.00 to 6.00 | 5.00 to 6.00 | 5.00 to 6.00 | 5.00 to 6.00 | 5.00 to 6.00 | 5.00 to 6.00 | 5.00 to 6.00 | 1 to 10 µM | 1 to 10 µM | – | – | – | – | – | – | –
2 | CN(c1ccc(-c2ccc(-c3cn[nH]c3)c3cn[nH]c23)nn1)C1CCNCC1 [Compound 273] | < 5.00 | < 5.00 | < 5.00 | < 5.00 | 5.00 to 6.00 | 5.00 to 6.00 | 5.00 to 6.00 | < 5.00 | < 5.00 | > 10 µM | > 10 µM | – | – | – | – | – | – | –
3 | c1n[nH]cc1-c1ccc(-c2ccc(N3CCCC4(CNC4)C3)nn2)c2[nH]ncc12 [Compound 251] | < 5.00 | < 5.00 | < 5.00 | < 5.00 | < 5.00 | < 5.00 | < 5.00 | < 5.00 | < 5.00 | > 10 µM | > 10 µM | – | – | – | – | – | – | –
4 | CC(C)Oc1nc(-c2ccc(N(C)[C@@H]3C[C@H]4CC[C@@H](C3)N4)nn2)ccc1-c1cn[nH]c1 [Compound 937] | – | – | – | – | – | – | – | – | – | – | – | 6.00 to 7.00 | 6.00 to 7.00 | 6.00 to 7.00 | > 7.00 | 5.00 to 6.00 | 6.00 to 7.00 | 5.00 to 6.00
5 | c1n[nH]cc1-c1ccc(-c2ccc(O[C@@H]3C[C@H]4CC[C@@H](C3)N4)nn2)c2cn[nH]c12 [Compound 328] | < 5.00 | < 5.00 | < 5.00 | < 5.00 | 5.00 to 6.00 | 5.00 to 6.00 | < 5.00 | < 5.00 | < 5.00 | > 10 µM | > 10 µM | – | – | – | – | – | – | –
6 | CN(c1ccc(-c2ccc(-c3ccc(=O)n(C)c3)c3cn[nH]c23)nn1)[C@@H]1C[C@H]2CC[C@@H](C1)N2 [Compound 365, 5-(7-{6-[(exo)-8-azabicyclo[3.2.1]octan-3-yl(methyl)amino]pyridazin-3-yl}-1H-indazol-4-yl)-1-methylpyridin-2-one] | 5.00 to 6.00 | 5.00 to 6.00 | < 5.00 | < 5.00 | 5.00 to 6.00 | 5.00 to 6.00 | 5.00 to 6.00 | 5.00 to 6.00 | 5.00 to 6.00 | 1 to 10 µM | > 10 µM | – | – | – | – | – | – | –

Further lines, with some results ahead:

Row | pIC50 (HTT [1]; [7]) | pIC50 (HTT [1]; [9]) | pIC50 (MYB [2]; [10]) | pIC50 (MYB [2]; [11]) | pIC50 (MYB [3]; Table 13A) | pIC50 (SMN2; [12]) | pIC50 (Target C [4]; Table 13A) | pIC50 (HTT [5]; Table 13A) | pIC50 (Target C [6]; [12]) | SMILES | AC50 (HTT [1]; [8]) | AC50 (MYB [2]; [8]) | pIC50 (HTT [1]; gene panel, CJ qPCR, protocol of Example 142, read-out: HTT IC50 (decrease in CJ mRNA levels)) | pIC50 (MYB [2]; gene panel, CJ qPCR, protocol of Example 142, read-out: MYB IC50 (decrease in CJ mRNA levels)) | pIC50 (MYB [3]; Table 13B) | pIC50 (SMN2; [13]) | pIC50 (Target C [4]; Table 13B) | pIC50 (HTT [5]; Table 13B) | pIC50 (Target C [6]; [13])
7 | < 5.00 | < 5.00 | < 5.00 | < 5.00 | < 5.00 | < 5.00 | < 5.00 | < 5.00 | < 5.00 | c1n[nH]cc1-c1ccc(-c2ccc(N3CCC4(CC3)CNC4)nn2)c2[nH]ncc12 [Compound 238] | > 10 µM | > 10 µM | – | – | – | – | – | – | –
8 | 6.00 to 7.00 | 6.00 to 7.00 | 6.00 to 7.00 | 6.00 to 7.00 | 6.00 to 7.00 | 6.00 to 7.00 | 6.00 to 7.00 | 6.00 to 7.00 | 6.00 to 7.00 | CN(C)C1CCN(c2ncc(-c3ccc(-c4cn[nH]c4)c4ncsc34)nn2)C1 (stereo not drawn) [Compound 413] | 0.1 to 1 µM | 0.1 to 1 µM | – | – | – | – | – | – | –
9 | – | > 7.00 | – | 5.00 to 6.00 | 5.00 to 6.00 | 6.00 to 7.00 | 6.00 to 7.00 | 6.00 to 7.00 | 6.00 to 7.00 | c1cnn(-c2ccc(-c3cnc(N4CCNC(C5CC5)C4)nn3)c3cn[nH]c23)c1 (stereo not drawn) [Compound 511] | – | – | – | – | – | – | – | – | –
10 | 5.00 to 6.00 | 5.00 to 6.00 | 5.00 to 6.00 | 5.00 to 6.00 | 5.00 to 6.00 | 6.00 to 7.00 | < 5.00 | 5.00 to 6.00 | < 5.00 | CC1(C)CC(Oc2ccc(-c3ccc(-c4cn[nH]c4)c4cn[nH]c34)nn2)CCN1 (stereo not drawn) [Compound 220] | > 10 µM | > 10 µM | – | – | – | – | – | – | –
